Marks after values point to notes of the source that are not given here.
What was measured:
[1] = test system: 2,985 participants free of prevalent diabetes at baseline; assay: Cardiovascular Health Study: plasma phospholipid fatty acids and incident diabetes mellitus (Cox proportional-hazards); format: in vivo, human; settings: for RR of diabetes per SD: per each higher SD of the plasma phospholipid fatty acid, multivariable-adjusted (covariates as in Table 4)
Protocol: Plasma phospholipid fatty acids, anthropometry, blood lipids, inflammatory markers, and glucose-insulin levels were measured at baseline using standardized methods. Independent determinants of trans-palmitoleate and relationships of trans-palmitoleate with metabolic risk factors were investigated using multivariable-adjusted linear regression.
Multivariable model adjusted for age (years), gender (male/female), race (white/nonwhite), education (<high school, high school, some college, college graduate), enrollment site (four sites), smoking (never, former, current), body mass index (kg/m^2), waist circumference (cm), coronary heart disease (yes/no), physical activity (kcal/wk), alcohol use (six categories), and consumption of carbohydrate (% energy), protein (% energy), red meat (servings/week), whole-fat dairy foods (6 categories), low-fat dairy foods (five categories), and total energy (kcal/d).
Participants were followed by means of annual examinations for 10 years with interim and subsequent 6-month telephone contacts. Ives et al., 5 Ann. Epidemiol. […] At each visit, detailed medication information was obtained using medication inventories. At baseline, study interviewers visited participants in their homes and asked to see all prescription medications they had taken in the previous 2 weeks. At follow-up exams, participants brought to clinic all prescription medications taken in the previous 2 weeks. Drug names, doses, and frequencies were coded according to prescription medication Medispan files.
Relationships between phospholipid fatty acids were evaluated using Spearman correlation. Trans-palmitoleate levels were evaluated in sex-specific quintiles as indicator variables and continuously per SD difference. Independent demographic and lifestyle determinants of trans-palmitoleate were evaluated using multivariable-adjusted linear regression with trans-palmitoleate as the dependent variable. Multivariable-adjusted relationships of trans-palmitoleate with metabolic risk factors (transformed for normality as appropriate) were evaluated using linear regression with trans-palmitoleate as the independent variable. Quintiles were evaluated as ordinal variables to assess trend, to assess effect modification using the Wald test for a multiplicative interaction term, and to assess differences in baseline characteristics by means of linear or logistic regression. […] To minimize potential confounding, covariates were selected based on biologic interest, being well-established risk factors for metabolic risk, or associations with exposures/outcomes in the present cohort. […] Analyses were performed using Stata10.1 (College Station, Tex.), two-tailed alpha=0.05.

[2] = test system: 3,736 U.S. men and women in the Cardiovascular Health Study; assay: Cardiovascular Health Study: multivariable-adjusted relationships of plasma phospholipid trans-palmitoleate with metabolic risk factors; format: in vivo, human; settings: for BMI / Blood Pressure: Diastolic / Blood Pressure: Systolic / Fasting insulin / HOMA-IR / Total/HDL-C ratio / Waist circumference: adjusted mean
Protocol: The present inventors investigated relationships of circulating trans-palmitoleate levels with metabolic risk and incident diabetes mellitus among 3,736 U.S. men and women in the prospective Cardiovascular Health Study. Plasma phospholipid fatty acids, anthropometry, blood lipids, inflammatory markers, and glucose-insulin levels were measured at baseline using standardized methods. Independent determinants of trans-palmitoleate and relationships of trans-palmitoleate with metabolic risk factors were investigated using multivariable-adjusted linear regression. Relationships with incident diabetes (304 incident cases) were investigated using Cox proportional-hazards. Validation for metabolic risk factors was performed in a second independent cohort of 327 generally healthy women.
CHS design and recruitment have been described. Fried et al., 1 Ann. Epidemiol. 263 (1991). Briefly, 5,201 ambulatory, non-institutionalized adults age ≥65 were selected randomly and then enrolled in 1989 to 1990 from Medicare eligibility lists in 4 U.S. communities (Forsyth County, NC; Sacramento County, CA; Washington County, MD.; Allegheny County, PA); an additional 687 black participants were recruited similarly and enrolled in 1992. Among all eligible adults contacted, 57% agreed to enroll. Baseline in-clinic evaluations included standardized physical examination, diagnostic testing, laboratory evaluation, and questionnaires on health status, medical history, and cardiovascular and lifestyle risk factors. Each center's institutional review committee approved the study; all participants provided informed written consent.
Plasma phospholipid fatty acids were measured in 3,736 individuals using 1992 blood samples, considered to be the baseline for all present analyses. This included 3,238 participants randomly selected from individuals with available blood samples in 1992 and an additional 498 participants from a prior case-control study of myocardial infarction. All analyses accounted for this within-cohort sampling using inverse-probability-of-sampling weights. Plasma phospholipids were selected as an excellent marker of longer-term (4-8 week) circulating fatty acids, with similar responses as levels in erythrocyte membranes. Blood was drawn after a 12-hr fast, stored (−70° C.), and shipped on dry ice for long-term centralized storage (−80° C.). Under these conditions plasma phospholipid fatty acids are stable long-term, and in prior studies we observed no degradation, lipolysis, or oxidation after 10 years storage. Measurements were performed at the Fred Hutchinson Cancer Research Center, providing quantitative measurement of 45 fatty acids as percent of total fatty acids. Total lipids were extracted from plasma using methods of Folch, and phospholipids separated from neutral lipids by one-dimensional TLC. Fatty-acid-methyl-ester (FAME) samples were prepared by direct transesterification using methods of Lepage and separated using gas chromatography (Agilent5890 gas-chromatograph-FID-detector; Supelco fused-silica 100 m capillary column SP-2560; initial 160° C. 16 min, ramp 3.0° C./min to 240° C., hold 15 min). Identification, precision, and accuracy were continuously evaluated using model mixtures of known FAMEs and established in-house controls, with identification confirmed by GC-MS at USDA (Peoria, Ill.) or for trans-fats by silver-ion TLC. CVs were 2.5% for trans-palmitoleate and <3% for most fatty acids.
At study-clinic examinations, risk factors were measured by trained personnel. Fried et al., 1991. Anthropometric measures including weight, height, and waist circumference were collected using standard procedures and used to calculate body mass index (BMI). Fasting total cholesterol, HDL-C, and triglycerides were measured according to CDC methods. LDL-C was calculated according to Friedewald equation, excluding individuals with hypertriglyceridemia. […]

[3] = test system: 327 generally healthy women in the Nurses' Health Study; assay: Nurses' Health Study validation cohort: erythrocyte and plasma trans-palmitoleate versus metabolic risk factors; format: in vivo, human; settings: multivariable-adjusted level across quartiles
Protocol: For independent validation, we evaluated the association of trans-palmitoleate measured in erythrocyte membranes and plasma (Sun et al., 88 Am. J. Clin. Nutr, 216 (2008)), with metabolic risk factors in a cohort of 327 generally healthy women, age=60.4±6.1 years, in the Nurses' Health Study (NHS). Relationships were evaluated for HDL-C, total:HDL-C, interleukin-6, CRP, and hemoglobinAlc. Because many samples were nonfasting, triglycerides and LDL-C were not evaluated; the number of subjects was too small to evaluate incident diabetes. Multivariable models were adjusted for age, smoking, physical activity, alcohol intake, family history, hypertension, hormone use, fasting status, and dietary carbohydrate, protein, polyunsaturated fats, saturated fat, dietary fiber, and total energy. We also evaluated correlations of trans-palmitoleate levels in plasma vs. erythrocytes in NHS (Spearman correlation[r]=0.74); and in phospholipids vs. triglycerides in CHS (n=104; r=0.54).

C2C12 myotubes = assay: Glucose uptake assay in differentiated C2C12 myotubes; format: cell-based; settings: 0.25 mM for 6 hr, values only in FIG. 1
Protocol: FIG. 1 is a bar graph showing data from differentiated C2C12 myotubes that were incubated with control medium, or medium with 0.25 mM palmitate (C16) or trans-16:1n7-palmitoleate for 6 hours; glucose uptake was assayed as described herein.
C2C12 myoblasts were maintained in 20% fetal bovine serum. To differentiate the myoblasts, cells were plated in 12-well plates coated with 0.2% gelatin and medium changed to 2% horse serum upon confluence. Five days post-differentiation, C2C12 myotubes were incubated in serum-free medium with 0.5% bovine serum albumin (Sigma) and indicated fatty acids at a final concentration of 0.25 mM for 6 hr. Glucose uptake assay was performed as described previously, with modifications. Somwar et al., 276 J. Biol. Chem. 46079 (2001). Briefly, cells were washed twice with 500 μl warm Krebs-Ringer-Hepes (KRH) buffer and 1 ml of KRH buffer was added into each wells. ^3H 2-D-Glucose (0.5 μCi/well) was added and cells were kept in incubator for 10 min. Medium was then removed and cells washed twice with ice-cold KRH buffer. Cells were plated on ice and lysed in 500 μl 0.1% SDS. Aliquots of 400 μl cell lysate were used for scintillation counting and protein assay quantification assay was performed on the rest of cell lysate.

[4] = test system: OB/OB, wild-type, and high-fat diet mice; assay: Tolerability of oral gavage administration in mice; format: in vivo; settings: 200 mg/kg/day to 2 g/kg/day for 5 weeks in PEG 300
Protocol: Trans-palmitoleate was obtained in pure, powdered form from Nu-Check Prep, Inc. (Elysian, Minn.) and dissolved in a polyethylene glycol vehicle (PEG 300). Mice were administered, by gavage, trans-palmitoleate in doses ranging from 200 mg/kg/day to 2 g/kg/day for 5 weeks. […] In OB/OB mice, after 2 weeks of treatment, plasma lipid analysis was determined from samples taken after 6 hr of fasting, 30 hr after last trans-palmiloleate administration. Additionally, research diets comprising mouse chow at 2% trans-palmitoleate % total food weight can be formulated.

[5] = across quintiles, further adjusted for adiposity
[6] = across quintiles, multivariable-adjusted
[7] = quintile I (median 0.13% of total fatty acids)
[8] = quintile II (median 0.16% of total fatty acids)
[9] = quintile III (median 0.18% of total fatty acids)
[10] = quintile IV (median 0.21% of total fatty acids)
[11] = quintile V (median 0.25% of total fatty acids)
[12] = erythrocyte trans-palmitoleate, first value
[13] = erythrocyte trans-palmitoleate, second value
[14] = plasma trans-palmitoleate, first value
[15] = plasma trans-palmitoleate, second value

CCCCCCCCCCCCCCC(=O)O [15:0, pentadecanoic acid, reference compound]
RR of diabetes per SD [1]: 1.01

CCCCCCCCCCCCCCCCC(=O)O [17:0, reference compound]
RR of diabetes per SD [1]: 0.98

CCCCCC/C=C/CCCCCCCCCC(=O)O [Vaccenic acid, vaccenic acid, reference compound]
RR of diabetes per SD [1]: 0.89

CCCCCC/C=C/CCCCCCCC(=O)O [trans-palmitoleate, trans-C16:1n7-palmitoleic acid]
association with fibrinogen ([2]; P=0.006, limited to lower levels in the lowest quintile only): higher fibrinogen | difference in CRP across quintiles [2, 5]: −13.8% | difference in HDL-C across quintiles [2, 5]: +1.9% | difference in fasting insulin across quintiles [2, 5]: −13.3% | difference in insulin resistance assessed by HOMA-IR across quintiles [2, 5]: −16.7% | difference in total:HDL-C ratio across quintiles [2, 5]: −4.7% | difference in triglycerides across quintiles [2, 5]: −19.0% | difference in BMI across quintiles [2, 6]: −1.8% | difference in waist circumference across quintiles [2, 6]: −1.8% | association with LDL-C, fasting glucose, or BP ([2]; multivariable-adjusted): not associated | BMI [2, 7]: 26.7 kg/m^2 | Blood Pressure: Diastolic [2, 7]: 71 mmHg | Blood Pressure: Systolic [2, 7]: 137 mmHg | Fasting insulin [2, 7]: 11.3 mU/l | HOMA-IR [2, 7]: 3.0 units | Total/HDL-C ratio [2, 7]: 4.3 | Waist circumference [2, 7]: 97.7 cm | BMI [2, 8]: 27.0 kg/m^2 | Blood Pressure: Diastolic [2, 8]: 71 mmHg | Blood Pressure: Systolic [2, 8]: 136 mmHg | Fasting insulin [2, 8]: 11.0 mU/l | HOMA-IR [2, 8]: 2.9 units | Total/HDL-C ratio [2, 8]: 4.3 | Waist circumference [2, 8]: 98.4 cm | BMI [2, 9]: 26.8 kg/m^2 | Blood Pressure: Diastolic [2, 9]: 70 mmHg | Blood Pressure: Systolic [2, 9]: 136 mmHg | Fasting insulin [2, 9]: 10.7 mU/l | HOMA-IR [2, 9]: 2.8* units | Total/HDL-C ratio [2, 9]: 4.2 | Waist circumference [2, 9]: 97.2 cm | BMI [2, 10]: 26.9 kg/m^2 | Blood Pressure: Diastolic [2, 10]: 71 mmHg | Blood Pressure: Systolic [2, 10]: 136 mmHg | Fasting insulin [2, 10]: 10.2† mU/l | HOMA-IR [2, 10]: 2.7† units | Total/HDL-C ratio [2, 10]: 4.1† | Waist circumference [2, 10]: 97.4 cm | BMI [2, 11]: 26.2 kg/m^2 | Blood Pressure: Diastolic [2, 11]: 71 mmHg | Blood Pressure: Systolic [2, 11]: 136 mmHg | Fasting insulin [2, 11]: 9.8‡ mU/l | HOMA-IR [2, 11]: 2.5‡ units | Total/HDL-C ratio [2, 11]: 4.1† | Waist circumference [2, 11]: 96.0* cm | extreme-quintile RR of new-onset diabetes ([1]; additional adjustment for levels of both 15:0 and 17:0): 0.39 | extreme-quintile RR of incident diabetes ([1]; additional adjustment for vaccenic acid (trans-18:1n-7)): 0.43 | extreme-quintile RR of incident diabetes ([1]; men): 0.29 | RR of diabetes per SD [1]: 0.72 | multivariable-adjusted RR of diabetes lower per each higher SD ([1]; per each higher SD of trans-palmitoleate): 28% | No. of incident cases of diabetes mellitus ([1]; quintile I, 5,595 person-years of follow-up): 93 | Hazard ratio (RR) of incident diabetes, age- and sex-adjusted ([1]; quintile II vs quintile I): 0.84 | Hazard ratio (RR) of incident diabetes, multivariate-adjusted ([1]; quintile II vs quintile I): 0.79 | No. of incident cases of diabetes mellitus ([1]; quintile II, 5,435 person-years of follow-up): 68 | Hazard ratio (RR) of incident diabetes, age- and sex-adjusted ([1]; quintile III vs quintile I): 0.88 | Hazard ratio (RR) of incident diabetes, multivariate-adjusted ([1]; quintile III vs quintile I): 0.89 | No. of incident cases of diabetes mellitus ([1]; quintile III, 5,556 person-years of follow-up): 59 | Hazard ratio (RR) of incident diabetes, age- and sex-adjusted ([1]; quintile IV vs quintile I): 0.44 | Hazard ratio (RR) of incident diabetes, multivariate-adjusted ([1]; quintile IV vs quintile I): 0.41 | No. of incident cases of diabetes mellitus ([1]; quintile IV, 5,811 person-years of follow-up): 46 | Hazard ratio (RR) of incident diabetes, age- and sex-adjusted ([1]; quintile V vs quintile I): 0.36 | Hazard ratio (RR) of incident diabetes, multivariate-adjusted ([1]; quintile V vs quintile I): 0.38 | No. of incident cases of diabetes mellitus ([1]; quintile V, 5,469 person-years of follow-up): 38 | extreme-quintile RR of incident diabetes ([1]; women): 0.41 | CRP [3, 12]: 3.3 mg/L | hemoglobinAlc [3, 12]: 5.92 | interleukin-6 (IL-6) [3, 12]: 2.3 pg/mL | total:HDL-C [3, 12]: 4.21 | CRP [3, 13]: 2.1 mg/L | hemoglobinAlc [3, 13]: 5.66 | interleukin-6 (IL-6) [3, 13]: 1.8 pg/mL | total:HDL-C [3, 13]: 3.87 | HDL-C [3, 14]: 56.5 mg/dL | hemoglobinAlc [3, 14]: 5.88% | total:HDL-C [3, 14]: 4.28 | HDL-C [3, 15]: 61.7 mg/dL | hemoglobinAlc [3, 15]: 5.64% | total:HDL-C [3, 15]: 3.63 | glucose uptake (C2C12 myotubes): Positive Glucose Uptake | tolerability [4]: well-tolerated, with no ill effects observed
